O=C(NS(=O)(=O)c1ccccc1NC(=O)c1cccc(OCc2ccccc2)c1)Oc1ccccc1
melting point: 163 to 164 °C

CCCCNC(=O)NS(=O)(=O)c1ccccc1NC(=O)c1cccc(OCc2ccccc2)c1
melting point: 177 to 178 °C

CCCCCCCCNC(=O)NS(=O)(=O)c1ccccc1NC(=O)c1cccc(OCc2ccccc2)c1
melting point: 124 to 125 °C

O=C(Nc1ccccc1S(=O)(=O)NC(=O)c1cccc(OCc2ccccc2)c1)c1cccc(OCc2ccccc2)c1 [compound 2, N-[2-(3-Benzyloxybenzamido)benzenesulfonyl]-3-benzyloxybenzamide]
melting point: 172 to 173 °C

O=C(Nc1ccccc1S(=O)(=O)NC(=O)c1ccccc1)c1cccc(OCc2ccccc2)c1 [compound 3, N-[2-(3-Benzyloxybenzamido)benzenesulfonyl]-benzamide]
melting point: 201 to 202 °C

CC(=O)NS(=O)(=O)c1ccccc1NC(=O)c1cccc(OCc2ccccc2)c1 [compound 4, N-[2-(3-Benzyloxybenzamido)benzenesulfonyl]acetamide]
melting point: 195 to 196 °C

O=C(Nc1ccccc1S(=O)(=O)NC(=O)c1ccc(C(F)(F)F)cc1)c1cccc(OCc2ccccc2)c1 [compound 5, N-[2-(3-Benzyloxybenzamido)benzenesulfonyl]-4-trifluoromethylbenzamide]
melting point: 220 to 221 °C

O=C(Nc1ccccc1S(=O)(=O)NC(=O)c1ccc([N+](=O)[O-])cc1)c1cccc(OCc2ccccc2)c1 [compound 6, N-[2-(3-benzyloxybenzamido)benzenesulfonyl]-4-nitrobenzamide]
melting point: 233 to 234 °C

COc1ccc(C(=O)NS(=O)(=O)c2ccccc2NC(=O)c2cccc(OCc3ccccc3)c2)cc1 [compound 7, N-[2-(3-benzyloxybenzamido)benzenesulfonyl]-4-methoxybenzamide]
melting point: 189 to 190 °C

CCCCCC(=O)NS(=O)(=O)c1ccccc1NC(=O)c1cccc(OCc2ccccc2)c1 [compound 9, N-[2-(3-Benzyloxybenzamido)benzenesulfonyl]-n-hexanamide]
melting point: 133 to 134 °C

CCCCCCCCCC(=O)NS(=O)(=O)c1ccccc1NC(=O)c1cccc(OCc2ccccc2)c1 [compound 10, N-[2-(3-Benzyloxybenzamido)benzenesulfonyl]-decanamide]
melting point: 85 to 86 °C

CC(C)(C)C(=O)NS(=O)(=O)c1ccccc1NC(=O)c1cccc(OCc2ccc(C(C)(C)C)cc2)c1 [compound 14, N-[2-[3-(4-t-butylbenzyloxy)benzamido]benzenesulfonyl]pivalamide]
melting point: 193 to 194 °C

CC(C)(C)c1ccc(COc2cccc(C(=O)Nc3ccccc3S(=O)(=O)NC(=O)/C=C/c3ccccc3)c2)cc1 [compound 15, N-[2-[3-(4-t-butylbenzyloxy)benzamido]benzenesulfonyl]cinnamamide]
melting point: 110 to 111 °C

CCCCCCCCCC(=O)NS(=O)(=O)c1ccccc1NC(=O)c1ccc([N+](=O)[O-])c(OCc2ccccc2)c1 [compound 19, N-[2-(3-benzyloxy-4-nitrobenzamido)benzenesulfonyl]decanamide]
melting point: 129 to 130 °C

CCCCCC(=O)NS(=O)(=O)c1ccccc1NC(=O)c1cccc(OCc2ccc(Cl)cc2)c1 [compound 22, N-[2-[3-(4-Chlorobenzyloxy)benzamido]benzenesulfonyl]hexanamide]
melting point: 148 to 149 °C

CCCCCCCCCC(=O)NS(=O)(=O)c1ccccc1NC(=O)c1cccc(OCc2ccc(Cl)cc2)c1 [compound 23, N-[2-[3-(4-Chlorobenzyloxy)benzamido]benzenesulfonyl]decanamide]
melting point: 159 to 161 °C

CC(=O)NS(=O)(=O)c1ccccc1NC(=O)c1cccc(OCc2ccc([N+](=O)[O-])cc2)c1 [compound 25, N-[2-[3-(4-Nitrobenzyloxy)benzamido]benzenesulfonyl]acetamide]
melting point: 189 to 192 °C

CCCCCCCCCC(=O)NS(=O)(=O)c1ccccc1NC(=O)c1cccc(OCc2ccc([N+](=O)[O-])cc2)c1 [compound 27, N-[2-[3-(4-nitrobenzyloxy)benzamido]benzenesulfonyl]decanamide]
melting point: 145 to 148 °C

COc1ccc(COc2cccc(C(=O)Nc3ccccc3S(=O)(=O)NC(C)=O)c2)cc1 [compound 29, N-[2-[3-(4-Methoxybenzyloxy)benzamido]benzenesulfonyl]acetamide]
melting point: 114 to 117 °C

CCCCCCCCCC(=O)NS(=O)(=O)c1ccccc1NC(=O)c1cccc(OCc2ccc(OC)cc2)c1 [compound 31, N-[2-[3-(4-Methoxybenzyloxy)benzamido]benzenesulfonyl]decanamide]
melting point: 148 to 149 °C

CC(=O)NS(=O)(=O)c1ccccc1NC(=O)c1cccc(OCC2CCCCC2)c1 [compound 33, N-[2-(3-Cyclohexylmethoxybenzamido)benzenesulfonyl]acetamide]
melting point: 164 to 167 °C

CCCCCCCCCC(=O)NS(=O)(=O)c1ccccc1NC(=O)c1cccc(OCC2CCCCC2)c1 [compound 35, N-[2-(3-Cyclohexylmethoxybenzamido)benzenesulfonyl]decanamide]
melting point: 124 to 127 °C

CC(=O)NS(=O)(=O)c1ccccc1NC(=O)c1cccc(OCc2ccc(C(C)(C)C)cc2)c1 [compound 36, N-[2-[3-(4-t-Butylbenzyloxy)benzamido]benzenesulfonyl]acetamide]
melting point: 190 to 191 °C

CCCCCC(=O)NS(=O)(=O)c1ccccc1NC(=O)c1cccc(OCc2ccc(C(C)(C)C)cc2)c1 [compound 37, N-[2-[3-(4-t-Butylbenzyloxy)benzamido]benzenesulfonyl]hexanamide]
melting point: 163 to 164 °C

CCCCCCCCCC(=O)NS(=O)(=O)c1ccccc1NC(=O)c1cccc(OCc2ccc(C(C)(C)C)cc2)c1 [compound 38, N-[2-[3-(4-t-Butylbenzyloxy)benzamido]benzenesulfonyl]decanamide]
melting point: 132 to 133 °C

CCCCCCCCCC(=O)NS(=O)(=O)c1ccccc1NC(=O)c1cccc(OCc2ccc(C(F)(F)F)cc2)c1 [compound 42, N-[2-[3-(4-Trifluoromethylbenzyloxy)benzamido]benzenesulfonyl]decanamide]
melting point: 164 °C

CCCCCCCOc1cccc(C(=O)Nc2ccccc2S(=O)(=O)NC(C)=O)c1 [compound 44, N-[2-(3-Heptyloxybenzamido)benzenesulfonyl]acetamide]
melting point: 194 to 195 °C

CCCCCCCOc1cccc(C(=O)Nc2ccccc2S(=O)(=O)NC(=O)CCCCC)c1 [compound 45, N-[2-(3-Heptyloxybenzamido)benzenesulfonyl]hexanamide]
melting point: 200 to 201 °C

CC(=O)NS(=O)(=O)c1ccccc1NC(=O)c1ccc(C#Cc2ccccc2)cc1 [compound 48, N-[2-(4-Phenylethynylbenzamido)benzenesulfonyl]acetamide]
melting point: 214 to 215 °C

CCCCCCCCCC(=O)NS(=O)(=O)c1ccccc1NC(=O)c1ccc(C#Cc2ccccc2)cc1 [compound 50, N-[2-(4-Phenylethynylbenzamido)benzenesulfonyl]decanamide]
melting point: 155 to 156 °C

CC(C)=CC(=O)NS(=O)(=O)c1ccccc1NC(=O)c1ccc(C#Cc2ccccc2)cc1 [compound 52, 3-Methyl-N-[2-(4-phenylethynylbenzamido)benzenesulfonyl]-2-butenamide]
melting point: 187 to 188 °C

From patent US20030191323A1, “Hypoglycemic agent” (Ajinomoto Co., Inc., priority 2000, published 2003)
